What was measured:
Type in all cases: cell-based
HT29-L23 cells [1] = assay: Real time PCR of Notch pathway genes in HT29-L23 cells; settings: relative to DMSO, normalized to PPIA
Method: HT29-L23 cells were treated with Compound Z or DMSO as described in Example 1. mRNA were isolated at indicated time points (FIGS. 5A-E) and analyzed by real time PCR with indicated Taqman probes (Applied Biosystems, Foster City, Calif.). Results were normalized relative to the amount of cyclophilin A (PPIA) mRNA for the same sample and were plotted as fold changes relative to DMSO treated sample at time zero. Statistical significance was determined by one-way ANOVA followed by Bonferroni's multiple comparison test performed within groups.

HT29 cells = assay: Mucin immunostaining in HT29 cells by microscopy; settings: 1 uM, 72 hours, serum-free medium
Method: (§1) HT29 cells were seeded in 4 or 8 well slide chambers. 24 hours later, cells were treated for 72 hours in serum-free medium with either Compound Z (1 uM in DMSO) or DMSO at a final DMSO concentration of 0.1%. Treated cells were washed twice with PBS, fixed with 4% paraformaldehyde (10 min, RT) followed by methanol (2 min, −20° C.). Fixed cells were washed twice with PBS, incubated with PBS+0.5% TritonX100 for 10 min., washed twice with PBS and blocked for 2 hr in PBS containing 0.1% TritonX100, 2% BSA and 5% dry milk. Cells were stained with primary antibody against mucin-2, mucin-5AC, mucin-1, mucin-3, or mucin-6 by adding primary antibody in blocking buffer and incubating 1 hr, RT. Cells were washed 3× with PBS+0.1% TritonX100 and stained with an appropriate species-specific PE-, TRITC- or FITC-labeled secondary antibody for 30 min., RT. Cells were visualized through microscopy. γ-secretase inhibitor Compound Z induced mucin-2 and mucin-5AC (FIGS. 1A and 1B) but not mucin-1, mucin-3, or mucin-6 in HT29 cells.

HT29-L23 cells [2] = assay: Mucin-2 induction in HT29-L23 cells transfected with NICD, AICD or control plasmid (High Content Screening); settings: 1 uM
Method: HT29-L23 cells were transiently transfected with control plasmid (pcDNA-DsRed) or Myc epitope tagged Notch intracellular domain (NICD) (activated Notch-1) or APP intracellular domain (AICD) (activated APP). Cells were treated with Compound Z (1 uM in DMSO) or vehicle, and protein expression was analyzed by High Content Screening as described in Example 1. After staining with Mucin-2 and Myc antibodies, the transfected subpopulation of cells (Myc positive) were used for final analysis. Cells without DsRed expression were designated as control. Statistical significance was determined by one-way ANOVA followed by Bonferroni's multiple comparison test performed within and between groups.

Notch = Notch cleavage assay; settings: n=252
Excerpt: (§2) Any method for determining the ability of a compound to inhibit cleavage of γ-secretase substrates known in the art may be employed. For example, methods for assessing the ability of a compound to cleave APP are known. The ability of a compound to cleave APP may be assessed, for example, by measuring or detecting Aβ peptides (e.g., Aβ1-40, Aβ1-42; see, e.g., U.S. Published Application No. 2003/0215896).

HT29-L23 cells [3] = assay: Mucin-2 induction in HT29-L23 cells; settings: read-out: HT29-L23 IC50 (mucin-2 induction)
Method: as §1, with “Cells were washed 3× with PBS+0.1% TritonX100 and stained with an appropriate species-specific PE-, TRITC- or FITC-labeled secondary antibody for 30 min., RT. Cells were visualized through microscopy. γ-secretase inhibitor Compound Z induced mucin-2 and mucin-5AC (FIGS. 1A and 1B) but not mucin-1, mucin-3, or mucin-6 in HT29 cells.” left out
HT29 subclones were generated through limiting dilution. […] Mucin-2 positive cells were measured by FACS analysis (FIG. 2). […] Images were acquired on an ArrayScan™ system and analyzed for mucin-2 expression with the Target activation application (FIGS. 3A and 3B).
(§3) HeLa cells were transiently transfected with Notch-1 ΔE and the CBF1 luciferase reporter, and inhibition of Notch signaling by compounds known to inhibit γ-secretase was determined. Induction of mucin-2 in HT29-L23 cells was determined as in Example 1 for the same set of γ-secretase inhibitory compounds.

[4] = tested on: Notch signaling (Notch-1 ΔE / CBF1 luciferase reporter); assay: Inhibition of Notch signaling in HeLa cells transiently transfected with Notch-1 ΔE and CBF1 luciferase reporter; settings: Homo sapiens
Method: as §3

APP = APP cleavage assay (Aβ peptides); settings: n=166
Excerpt: as §2

EC50 (Notch): 2.1 nM | IC50 (HT29-L23 cells [3]): 11.9 nM | IC50 [4]: 4.59 nM | EC50 (APP): 0.81 nM
SMILES: C[C@H](NC(=O)[C@@H](O)c1cc(F)cc(F)c1)C(=O)N[C@@H]1C(=O)N(C)N=Cc2ccccc21 [Compound 1]
Delta-1 mRNA (HT29-L23 cells [1]): induced | HES-1 mRNA (HT29-L23 cells [1]): downregulated | Jagged-2 mRNA (HT29-L23 cells [1]): induced | Math-1 mRNA (HT29-L23 cells [1]): induced | Mucin-2 mRNA (HT29-L23 cells [1]): induced | mucin-1 induction (HT29 cells): not | mucin-2 induction (HT29 cells): induced | mucin-3 induction (HT29 cells): not | mucin-5AC induction (HT29 cells): induced | mucin-6 induction (HT29 cells): not | number of cells producing mucin-2 (HT29-L23 cells [2]; AICD (activated APP) transfected group): increased | number of cells producing mucin-2 (HT29-L23 cells [2]; Control group): increased
